# Experiments:
# HLA-DPA1 = assay: RNA microarray, HLA-DPA1 expression in PBMCs (MHC-II pathway); assay type: cell-based, human; settings: final concentration of 5%, 24 hours, normalized to control group
# Experimental: (§1) PBMCs are immunocytes present in the peripheral blood. In these preparation examples, PBMCs were isolated from the peripheral blood obtained from healthy donors.
# (§2) B. Treatments Applied to PBMCs • (b1) 1 mL X-VIVO 10 medium was added into each well of a 24-well plate, and then PBMCs obtained from step A were seeded into the medium with a density of 1×10^6 to 2×10^6/well; and • (b2) PBMCs obtained from step b1 were separated into two groups for the following treatments: • Control group: the PBMCs-containing medium was directly incubated in a 37° C. constant temperature incubator with 5% CO2 (i.e., PBMCs were cultured in a medium that was free of the compound of formula (I)) for 24 hours; • Experimental group: the compound of formula (I) was added to the PBMCs-containing medium until a final concentration of 5%, and then the medium was incubated in a 37° C. constant temperature incubator with 5% CO2 for 24 hours. […]
# (§3) To know whether the compound of formula (I) can inhibit the activation of the MHC-II pathway, after determining mRNA expression levels via the above Preparation example C, the expression levels of genes relating to MHC-II pathway (including CD4, CD74, CIITA, HLA-DMB, HLA-DPA1, HLA-DPB1, HLA-DQB1, HLA-DRA, and LGMN) of the control and experimental group were recorded respectively. […]
# [1] = system: KLRG1 (killer cell lectin-like receptor subfamily G, member 1); assay: RNA microarray, KLRG1 expression in PBMCs (aging genes); assay type: cell-based, human; settings: final concentration of 5%, 24 hours, normalized to control group
# Experimental: as §1, §2
# (§4) To know whether the compound of formula (I) can delay the aging of immunocytes, after determining mRNA expression levels via the above Preparation example C, the expression levels of genes representing the old stage of immunocytes (including CD244, ITGA4, and KLRG1) of the control and experimental group were recorded respectively. […]
# [2] = system: CD74 (Cluster of Differentiation 74); assay: RNA microarray, CD74 expression in PBMCs (MHC-II pathway); assay type: cell-based, human; settings: final concentration of 5%, 24 hours, normalized to control group
# Experimental: as §1, §2, §3
# [3] = system: HSPA1B (heat shock protein family A member 1B); assay: RNA microarray, HSPA1B expression in PBMCs (MHC-I pathway); assay type: cell-based, human; settings: final concentration of 5%, 24 hours, compared to control group
# Experimental: as §1, §2
# as §3, with “promote” for “inhibit”, “MHC-I” for “MHC-II”, “CTSL, HSPA1B,” for “CD4, CD74, CIITA, HLA-DMB, HLA-DPA1, HLA-DPB1, HLA-DQB1, HLA-DRA,”, “HSPA2)” for “LGMN)”
# HLA-DRA = assay: RNA microarray, HLA-DRA expression in PBMCs (MHC-II pathway); assay type: cell-based, human; settings: final concentration of 5%, 24 hours, normalized to control group
# Experimental: as §1, §2, §3
# [4] = system: HLA-DMB (human leukocyte antigen-DMB); assay: RNA microarray, HLA-DMB expression in PBMCs (MHC-II pathway); assay type: cell-based; settings: final concentration of 5%, 24 hours, normalized to control group
# Experimental: as §1, §2, §3
# [5] = system: CIITA (Class II Major Histocompatibility Complex Transactivator); assay: RNA microarray, CIITA expression in PBMCs (MHC-II pathway); assay type: cell-based, human; settings: final concentration of 5%, 24 hours, normalized to control group
# Experimental: as §1, §2, §3
# [6] = system: ITGA4 (integrin subunit alpha 4); assay: RNA microarray, ITGA4 expression in PBMCs (aging genes); assay type: cell-based, human; settings: final concentration of 5%, 24 hours, normalized to control group
# Experimental: as §1, §2, §4
# HLA-DQB1 = assay: RNA microarray, HLA-DQB1 expression in PBMCs (MHC-II pathway); assay type: cell-based, human; settings: final concentration of 5%, 24 hours, normalized to control group
# Experimental: as §1, §2, §3
# LGMN (legumain) = assay: RNA microarray, LGMN expression in PBMCs (MHC-II pathway); assay type: cell-based, human; settings: final concentration of 5%, 24 hours, normalized to control group
# Experimental: as §1, §2, §3
# [7] = system: CD4 (Cluster of Differentiation 4); assay: RNA microarray, CD4 expression in PBMCs (MHC-II pathway); assay type: cell-based, human; settings: final concentration of 5%, 24 hours, normalized to control group
# Experimental: as §1, §2, §3
# [8] = system: TNFRSF14 (TNF superfamily, member 14); assay: RNA microarray, TNFRSF14 expression in PBMCs (genes delaying aging of immunocytes); assay type: cell-based, human; settings: final concentration of 5%, 24 hours, compared to control group
# Experimental: as §1, §2
# as §4, with “helpful for delaying” for “representing”, “aging” for “old stage”, “FOXO3, SOD2,” for “CD244, ITGA4,”, “TNFRSF14)” for “KLRG1)”
# [9] = system: IL-1B (interleukin 1 beta); assay: RNA microarray, IL-1B expression in PBMCs (macrophage activation); assay type: cell-based, human; settings: final concentration of 5%, 24 hours, normalized to control group
# Experimental: as §1, §2
# (§5) To know whether the compound of formula (I) can promote the activation of macrophages, after determining mRNA expression levels via the above Preparation example C, the expression levels of genes relating to macrophage activation (including IL-1B and TNF-α) of the control and experimental group were recorded respectively. […]
# HLA-DPB1 = assay: RNA microarray, HLA-DPB1 expression in PBMCs (MHC-II pathway); assay type: cell-based, human; settings: final concentration of 5%, 24 hours, normalized to control group
# Experimental: as §1, §2, §3
# [10] = system: TNF-α (tumor necrosis factor alpha); assay: RNA microarray, TNF-α expression in PBMCs (macrophage activation); assay type: cell-based, human; settings: final concentration of 5%, 24 hours, compared to control group
# Experimental: as §1, §2, §5
# CTSL (Cathepsin L) = assay: RNA microarray, CTSL expression in PBMCs (MHC-I pathway); assay type: cell-based, human; settings: final concentration of 5%, 24 hours, normalized to control group
# Experimental: as §1, §2
# as §5, with “the MHC-I pathway,” for “macrophages,”, “MHC-I pathway” for “macrophage activation”, “CTSL, HSPA1B,” for “IL-1B”, “HSPA2)” for “TNF-α)”
# [11] = system: CD244 (Cluster of Differentiation 244); assay: RNA microarray, CD244 expression in PBMCs (aging genes); assay type: cell-based, human; settings: final concentration of 5%, 24 hours, normalized to control group
# Experimental: as §1, §2, §4
# [12] = system: SOD2 (Superoxide dismutase 2); assay: RNA microarray, SOD2 expression in PBMCs (genes delaying aging of immunocytes); assay type: cell-based, human; settings: final concentration of 5%, 24 hours, normalized to control group
# Experimental: as §1, §2
# as §4, with “helpful for delaying” for “representing”, “aging” for “old stage”, “FOXO3, SOD2,” for “CD244, ITGA4,”, “TNFRSF14)” for “KLRG1)”
# [13] = system: HSPA2 (Heat Shock Protein Family A Member 2); assay: RNA microarray, HSPA2 expression in PBMCs (MHC-I pathway); assay type: cell-based, human; settings: final concentration of 5%, 24 hours, normalized to control group
# Experimental: as §1, §2
# as §5, with “the MHC-I pathway,” for “macrophages,”, “MHC-I pathway” for “macrophage activation”, “CTSL, HSPA1B,” for “IL-1B”, “HSPA2)” for “TNF-α)”
# FOXO3 (forkhead box O3) = assay: RNA microarray, FOXO3 expression in PBMCs (genes delaying aging of immunocytes); assay type: cell-based, human; settings: final concentration of 5%, 24 hours, compared to control group
# Experimental: as §1, §2
# as §4, with “helpful for delaying” for “representing”, “aging” for “old stage”, “FOXO3, SOD2,” for “CD244, ITGA4,”, “TNFRSF14)” for “KLRG1)”
compound,measurement,setting,value
C=C1CC[C@@H](C)C2C[C@@H](O)[C@@H](C(C)C(=O)O)CC12 (some centres unmarked) [compound of formula (I)],expression level of HLA-DPA1,HLA-DPA1,0.23 times the level of the control group
same,expression level of KLRG1,[1],0.25 times the level of the control group
same,expression level of CD74,[2],0.18 times the level of the control group
same,expression level of HSPA1B,[3],significantly increased
same,expression level of HLA-DRA,HLA-DRA,0.36 times the level of the control group
same,expression level of HLA-DMB,[4],0.31 times the level of the control group
same,expression level of CIITA,[5],0.40 times the level of the control group
same,expression level of ITGA4,[6],0.24 times the level of the control group
same,expression level of HLA-DQB1,HLA-DQB1,0.14 times the level of the control group
same,expression level of LGMN,LGMN (legumain),0.32 times the level of the control group
same,expression level of CD4,[7],0.47 times the level of the control group
same,expression level of TNFRSF14,[8],significantly increased
same,expression level of IL-1B,[9],16.32 times the level of the control group
same,expression level of HLA-DPB1,HLA-DPB1,0.23 times the level of the control group
same,expression level of TNF-α,[10],significantly increased
same,expression level of CTSL,CTSL (Cathepsin L),3.13 times the level of the control group
same,expression level of CD244,[11],0.14 times the level of the control group
same,expression level of SOD2,[12],6.06 times the level of the control group
same,expression level of HSPA2,[13],4.61 times the level of the control group
same,expression level of FOXO3,FOXO3 (forkhead box O3),significantly increased
